Data: article PMC11846820, “Inhibition of DYRK1B BY C81 impedes inflammatory processes in leukocytes by reducing STAT3 activity” (Cellular and Molecular Life Sciences: CMLS, 2025)

Columns and labels:
Experiment in all cases: NanoBRET target engagement (tracer displacement) in intact HEK293T cells
Format in all cases: cell-based
[1] = target: T1, CLK2 (Homo sapiens, UniProt P49760)
T1 construct: Full-length, terminal NanoLuc fusion

[2] = target: T2, CLK1 (Homo sapiens, UniProt P49759)
T2 construct: Full-length, terminal NanoLuc fusion

[3] = target: T3, DYRK1B (Homo sapiens, UniProt Q9Y463)
T3 construct: Full-length, terminal NanoLuc fusion

[4] = target: T4, CLK4 (Homo sapiens, UniProt Q9HAZ1)
T4 construct: Full-length, terminal NanoLuc fusion

[5] = target: T5, DYRK1A (Homo sapiens, UniProt Q13627)
T5 construct: Full-length, terminal NanoLuc fusion

[6] = target: T6, DYRK2 (Homo sapiens, UniProt Q92630)
T6 construct: Full-length, terminal NanoLuc fusion
T6 sequence (Q92630 1-601): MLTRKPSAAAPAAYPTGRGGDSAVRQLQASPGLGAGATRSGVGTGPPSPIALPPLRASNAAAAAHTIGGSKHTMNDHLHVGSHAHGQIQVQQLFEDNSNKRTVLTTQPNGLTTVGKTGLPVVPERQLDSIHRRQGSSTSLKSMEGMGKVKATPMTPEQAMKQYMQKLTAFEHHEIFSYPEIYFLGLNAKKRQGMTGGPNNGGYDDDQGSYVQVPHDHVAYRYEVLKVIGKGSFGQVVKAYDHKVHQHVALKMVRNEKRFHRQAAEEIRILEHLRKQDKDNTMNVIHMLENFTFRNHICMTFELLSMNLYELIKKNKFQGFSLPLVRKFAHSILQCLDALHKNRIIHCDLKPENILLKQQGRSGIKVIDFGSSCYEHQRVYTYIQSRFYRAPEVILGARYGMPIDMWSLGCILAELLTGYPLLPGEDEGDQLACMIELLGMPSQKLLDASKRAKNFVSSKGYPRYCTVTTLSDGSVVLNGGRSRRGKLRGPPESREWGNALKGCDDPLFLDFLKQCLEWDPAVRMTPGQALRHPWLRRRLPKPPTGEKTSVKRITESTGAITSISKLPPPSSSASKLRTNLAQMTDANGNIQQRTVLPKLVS

T4 sequence (Q9HAZ1 whole entry, the tested form may be a part): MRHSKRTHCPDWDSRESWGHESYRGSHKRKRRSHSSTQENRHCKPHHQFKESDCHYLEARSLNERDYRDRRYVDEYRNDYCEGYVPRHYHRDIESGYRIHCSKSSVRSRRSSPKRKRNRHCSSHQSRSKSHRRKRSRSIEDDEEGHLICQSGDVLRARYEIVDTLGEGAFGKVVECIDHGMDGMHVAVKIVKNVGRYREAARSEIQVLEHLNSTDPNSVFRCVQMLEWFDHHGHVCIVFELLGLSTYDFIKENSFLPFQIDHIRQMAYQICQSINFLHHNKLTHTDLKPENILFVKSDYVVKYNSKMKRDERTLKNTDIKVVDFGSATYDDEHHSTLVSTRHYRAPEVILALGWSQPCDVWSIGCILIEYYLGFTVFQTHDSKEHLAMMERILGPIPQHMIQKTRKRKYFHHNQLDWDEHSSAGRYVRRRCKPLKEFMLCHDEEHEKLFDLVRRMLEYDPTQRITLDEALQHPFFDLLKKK
T1 sequence (P49760 whole entry, the tested form may be a part): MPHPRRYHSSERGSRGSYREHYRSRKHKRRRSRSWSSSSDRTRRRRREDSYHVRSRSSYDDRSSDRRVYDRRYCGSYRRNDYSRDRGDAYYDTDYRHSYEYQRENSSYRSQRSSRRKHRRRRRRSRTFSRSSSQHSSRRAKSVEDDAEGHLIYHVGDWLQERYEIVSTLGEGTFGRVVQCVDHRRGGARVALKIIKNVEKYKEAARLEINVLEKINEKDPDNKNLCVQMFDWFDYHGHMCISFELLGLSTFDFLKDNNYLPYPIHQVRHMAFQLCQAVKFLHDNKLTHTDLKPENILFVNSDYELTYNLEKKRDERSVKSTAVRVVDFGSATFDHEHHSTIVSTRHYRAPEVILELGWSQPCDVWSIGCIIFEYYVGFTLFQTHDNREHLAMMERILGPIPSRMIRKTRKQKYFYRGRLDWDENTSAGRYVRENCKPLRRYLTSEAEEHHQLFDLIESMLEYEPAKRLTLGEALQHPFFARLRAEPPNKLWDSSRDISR
T2 sequence (P49759 whole entry, the tested form may be a part): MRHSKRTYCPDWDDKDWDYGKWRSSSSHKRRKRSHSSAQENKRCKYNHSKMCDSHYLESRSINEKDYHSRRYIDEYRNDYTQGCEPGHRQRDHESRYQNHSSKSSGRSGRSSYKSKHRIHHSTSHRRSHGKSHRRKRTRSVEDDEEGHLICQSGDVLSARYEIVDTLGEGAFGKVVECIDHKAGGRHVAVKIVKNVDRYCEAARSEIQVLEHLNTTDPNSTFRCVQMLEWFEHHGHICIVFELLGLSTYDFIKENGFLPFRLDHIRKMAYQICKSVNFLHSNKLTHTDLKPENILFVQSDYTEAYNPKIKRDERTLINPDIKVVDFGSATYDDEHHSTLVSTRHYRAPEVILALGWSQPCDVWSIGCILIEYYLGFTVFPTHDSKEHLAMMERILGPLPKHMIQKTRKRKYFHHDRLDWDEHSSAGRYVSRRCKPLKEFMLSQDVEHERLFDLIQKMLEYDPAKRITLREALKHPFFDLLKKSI
T3 sequence (Q9Y463 whole entry, the tested form may be a part): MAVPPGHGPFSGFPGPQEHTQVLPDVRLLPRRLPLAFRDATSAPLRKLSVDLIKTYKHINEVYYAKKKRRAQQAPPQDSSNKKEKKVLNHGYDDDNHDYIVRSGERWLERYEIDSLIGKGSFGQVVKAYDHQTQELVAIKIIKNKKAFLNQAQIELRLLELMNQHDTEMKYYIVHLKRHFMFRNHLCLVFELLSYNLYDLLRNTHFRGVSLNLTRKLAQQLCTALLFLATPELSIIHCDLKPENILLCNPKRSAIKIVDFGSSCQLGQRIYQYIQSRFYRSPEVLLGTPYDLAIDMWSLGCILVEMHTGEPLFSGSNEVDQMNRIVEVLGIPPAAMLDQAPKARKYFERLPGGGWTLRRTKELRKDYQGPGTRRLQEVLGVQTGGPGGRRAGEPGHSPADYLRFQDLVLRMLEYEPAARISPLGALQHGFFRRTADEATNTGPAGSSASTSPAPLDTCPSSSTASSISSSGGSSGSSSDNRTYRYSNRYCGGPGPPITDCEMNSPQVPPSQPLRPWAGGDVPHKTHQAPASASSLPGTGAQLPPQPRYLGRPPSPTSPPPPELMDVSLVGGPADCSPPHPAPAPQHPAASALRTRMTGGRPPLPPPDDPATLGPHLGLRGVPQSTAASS

EC50 [1]: 5 µM
EC50 [2]: 0.299 µM
EC50 [3]: 0.537 µM
EC50 [4]: 0.119 µM
EC50 [5]: 3.8 µM
EC50 [6]: 3.4 µM
SMILES: Cc1nccc(-c2cn(Cc3ccccc3)c3cnccc23)n1 [AZ-DYRK1B-33]
